Test results taken from patent US11787780B2 (CORCEPT THERAPEUTICS INCORPORATED, priority 2020, dated 2023).

Experiments:
[1] = biological target: glucocorticoid receptor (GR) recombinant ligand binding domain (LBD) (Homo sapiens (Human), UniProt P04150); test: GR binding fluorescence polarisation (FP) assay; conditions: displacement of fluorescently tagged ligand
Protocol: Binding of test compounds to the glucocorticoid receptor (GR) is determined using a fluorescence polarisation (FP) assay utilising a recombinant ligand binding domain (LBD) of GR. The test compounds are assessed by their ability to displace a fluorescently tagged ligand and detection of the resulting decrease in fluorescence polarisation.

[2] = tested on: induction of TAT by dexamethasone in HepG2 cells; test: Hep G2 TAT assay (inhibition of dexamethasone-induced TAT); assay type: cell-based, human; conditions: challenge of 100 nM dexamethasone, IC50 converted to Ki by Cheng and Prusoff equation

Chain of glucocorticoid receptor (GR) recombinant ligand binding domain (LBD) (P04150 524-758): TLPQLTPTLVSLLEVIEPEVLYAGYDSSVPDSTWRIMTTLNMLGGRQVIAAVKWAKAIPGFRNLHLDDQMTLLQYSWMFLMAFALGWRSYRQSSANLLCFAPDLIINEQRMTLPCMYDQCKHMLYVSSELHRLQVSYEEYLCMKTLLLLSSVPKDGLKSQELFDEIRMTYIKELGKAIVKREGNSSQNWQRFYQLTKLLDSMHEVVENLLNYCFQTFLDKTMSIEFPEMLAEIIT

Row | SMILES | IC50 [1] [µM] | Ki [2] [µM]
1 | Cc1cc2c(cnn2-c2ccc(=O)n(C)c2)cc1C1(C(C)c2ccccc2)CCN(S(=O)(=O)c2cnn(C)n2)C1 (stereo not drawn) [Example 274, 1-methyl-5-(6-methyl-5-(1-((2-methyl-2H-1,2,3-triazol-4-yl)sulfonyl)-3-(1-phenylethyl)pyrrolidin-3-yl)-1H-indazol-1-yl)pyridin-2(1H)-one] | 0.081 | 0.29
2 | Cc1cc2c(cnn2-c2ccc(=O)n(C)c2)cc1C1(Cc2ccccc2)CCN(S(=O)(=O)c2cn(C)nn2)C1 (stereo not drawn) [Example 275, 5-(5-(3-benzyl-1-((1-methyl-1H-1,2,3-triazol-4-yl)sulfonyl)pyrrolidin-3-yl)-6-methyl-1H-indazol-1-yl)-1-methylpyridin-2(1H)-one] | 0.018 | 0.07
3 | Cc1cc2c(cnn2-c2ccc(=O)n(C)c2)cc1C1(Cc2ccccc2)CCN(S(=O)(=O)c2cn(C)c(C)n2)C1 (stereo not drawn) [Example 288] | 0.033 | 0.11
4 | Cc1cc2c(cnn2-c2ccc(=O)n(C)c2)cc1C1(Cc2ccccc2)CCN(S(=O)(=O)C2CC2)C1 (stereo not drawn) [Example 289, 5-(5-(3-benzyl-1-(cyclopropylsulfonyl)pyrrolidin-3-yl)-6-methyl-1H-indazol-1-yl)-1-methylpyridin-2(1H)-one] | 0.013 | 0.069
5 | Cc1cc2c(cnn2-c2ccc(=O)n(C)c2)cc1C1(Cc2ccccc2)CCN(S(=O)(=O)c2cn(C)cn2)C1 (stereo not drawn) [Example 290, 5-(5-(3-benzyl-1-((1-methyl-1H-imidazol-4-yl)sulfonyl)pyrrolidin-3-yl)-6-methyl-1H-indazol-1-yl)-1-methylpyridin-2(1H)-one] | 0.062 | 0.2
6 | Cc1cc2c(cnn2-c2ccc(=O)n(C)c2)cc1C1(Cc2ccccc2)CCN(S(=O)(=O)c2ccc(C(F)(F)F)nc2)C1 (stereo not drawn) [Example 292, 5-(5-(3-benzyl-1-((6-(trifluoromethyl)pyridin-3-yl)sulfonyl)pyrrolidin-3-yl)-6-methyl-1H-indazol-1-yl)-1-methylpyridin-2(1H)-one] | 0.014 | 0.11

These reach a lower IC50 [1]. Values come first.

Row | IC50 [1] [µM] | SMILES | Ki [2] [µM]
7 | 0.0054 | Cc1cc2c(cnn2-c2ccc(=O)n(C)c2)cc1C1(Cc2ccccc2)CCN(S(=O)(=O)c2ccn(C)n2)C1 (stereo not drawn) [Example 276, 5-(5-(3-benzyl-1-((1-methyl-1H-pyrazol-3-yl)sulfonyl)pyrrolidin-3-yl)-6-methyl-1H-indazol-1-yl)-1-methylpyridin-2(1H)-one] | 0.052
8 | 0.011 | Cc1cc2c(cnn2-c2ccc(=O)n(C)c2)cc1C1(Cc2ccccc2)CCN(S(=O)(=O)c2cccnc2)C1 (stereo not drawn) [Example 286, 5-(5-(3-benzyl-1-(pyridin-3-ylsulfonyl)pyrrolidin-3-yl)-6-methyl-1H-indazol-1-yl)-1-methylpyridin-2(1H)-one] | 0.052
9 | 0.0067 | Cc1cc2c(cnn2-c2ccc(=O)n(C)c2)cc1C1(Cc2ccccc2)CCN(S(=O)(=O)c2ccc(F)c(F)c2)C1 (stereo not drawn) [Example 287, 5-(5-(3-benzyl-1-((3,4-difluorophenyl)sulfonyl)pyrrolidin-3-yl)-6-methyl-1H-indazol-1-yl)-1-methylpyridin-2(1H)-one] | 0.025
10 | 0.0061 | Cc1cc2c(cnn2-c2ccc(=O)n(C)c2)cc1C1(Cc2ccccc2)CCN(S(=O)(=O)c2ccnn2C)C1 (stereo not drawn) [Example 293, 5-(5-(3-benzyl-1-((1-methyl-1H-pyrazol-5-yl)sulfonyl)pyrrolidin-3-yl)-6-methyl-1H-indazol-1-yl)-1-methylpyridin-2(1H)-one] | 0.1
11 | 0.004 | Cc1cc2c(cnn2-c2ccc(=O)n(C)c2)cc1C1(Cc2ccccc2)CCN(S(=O)(=O)c2ccccc2)C1 (stereo not drawn) [Example 294, 5-(5-(3-benzyl-1-(phenylsulfonyl)pyrrolidin-3-yl)-6-methyl-1H-indazol-1-yl)-1-methylpyridin-2(1H)-one] | 0.041
12 | 0.0063 | Cc1cc2c(cnn2-c2ccc(=O)n(C)c2)cc1C1(Cc2ccccc2)CCN(S(=O)(=O)c2cccc(C#N)c2)C1 (stereo not drawn) [Example 295, 3-((3-benzyl-3-(6-methyl-1-(1-methyl-6-oxo-1,6-dihydropyridin-3-yl)-1H-indazol-5-yl)pyrrolidin-1-yl)sulfonyl)benzonitrile] | 0.062
